Measurements reported in patent US20210186962A1, “METHODS OF SCHIZOPHRENIA TREATMENT” (INTRA-CELLULAR THERAPIES, INC., priority 2019, published 2021).

Legend:
[1] = test system: elderly subjects with dementia; details: cited from earlier work
[2] = test system: patients with stable schizophrenia; test: Uncontrolled open-label trial for up to 1 year; type: in vivo, human
Source text: A total of 4.7% of patients with normal hemoglobin A1c (<6.5%) at baseline developed elevated levels (>6.5%) post-baseline.

[3] = test system: patients with schizophrenia; test: QTcF four-arm crossover study; type: in vivo, human
Protocol: QTcF interval was evaluated in a randomized, placebo- and active-(moxifloxacin 400 mg) controlled, four-arm crossover study utilizing concentration-QTc effect modeling in 33 patients with schizophrenia.

[4] = test system: adult patients with a diagnosis of schizophrenia; test: Study 1 (NCT01499563), four-week placebo-controlled, PANSS total score; type: in vivo, human
Source text: Study 1 (NCT01499563) was a four-week, randomized, double-blind, placebo-controlled, multi-center study in adult patients with a diagnosis of schizophrenia according to the DSM-IV-TR criteria. The primary efficacy measure was the Positive and Negative Syndrome Scale (PANSS) total score. The PANSS is a 30-item scale used to measure symptoms of schizophrenia. Each item is rated by a clinician on a seven-point scale. A score of 1 indicates the absence of symptoms, and a score of 7 indicates extremely severe symptoms. The PANSS total score may range from 30 to 210 with higher scores reflecting greater overall symptom severity.
Median age was 42 years (range 20 to 55 years). 17% were female, 19% were Caucasian, and 78% were African American.

[5] = test system: adult patients with a diagnosis of schizophrenia; test: Study 2 (NCT02282761), four-week placebo-controlled, PANSS total score; type: in vivo, human
Source text: Study 2 (NCT02282761) was a four-week, randomized, double-blind, placebo-controlled, multi-center study in adult patients with a diagnosis of schizophrenia according to the DSM-5 criteria. The primary efficacy measure was the PANSS total score. […] Median age was 44 years (range 19 to 60 years); 23% were female, 26% were Caucasian and 66% were African American.

[6] = test system: adult patients with schizophrenia; test: Pooled short-term (4- to 6-week) placebo-controlled schizophrenia trials, safety; type: in vivo, human; details: for Somnolence/Sedation, adverse reaction incidence: placebo 10%, 4-methylbenzenesulfonate
Protocol: Of these patients, 811 participated in short-term (4- to 6-week), placebo-controlled trials with doses ranging from 14 to 84 mg/day.
In the 4- to 6-week trials, data were collected using the Simpson Angus Scale (SAS) for EPS (total score ranges from 0 to 40), the Barnes Akathisia Rating Scale (BARS) for akathisia (total score ranges from 0 to 14), and the Abnormal Involuntary Movement Scale (AIMS) for dyskinesia (total score ranges from 0 to 28).

[7] = 4- to 6-week trials, 60 mg tosylate daily, N = 406, placebo 1%
[8] = 4- to 6-week trials, 60 mg tosylate daily, N = 406, placebo 2%

For `O=C1CCc2ccc(OCCCCN3CCN(c4cccc(Cl)c4Cl)CC3)cc2N1` [aripiprazole], the “incidence of stroke and transient ischemic attack, including fatal stroke, versus placebo” value (“incidence … versus placebo” below) [1] is given as “higher incidence”.

For `Cc1cc2c(s1)Nc1ccccc1N=C2N1CCN(C)CC1` [olanzapine], the “incidence … versus placebo” value [1] is given as “higher incidence”.

For `CN1CCN2c3c(cccc31)[C@@H]1CN(CCCC(=O)c3ccc(F)cc3)CC[C@@H]12.Cc1ccc(S(=O)(=O)O)cc1` [Lumateperone tosylate, 4-((6bR,10aS)-3-methyl-2,3,6b,9,10,10a-hexahydro-1H,7H-pyrido[3′,4′: 4,5]pyrrolo[1,2,3-de]quinoxalin-8-yl)-1-(4-fluoro-phenyl)-butan-1-one 4-methylbenzenesulfonate], the “mean change in body weight” value ([2]; Day 175, SD 5.6) was “approximately −2 kg”, the “mean change in body weight” value ([2]; Day 350, SD 7.4) was “approximately −3.2 kg” and the “patients with normal hemoglobin A1c (<6.5%) at baseline who developed elevated levels (>6.5%) post-baseline” value ([2]; up to 1 year) was 4.7%. The “placebo-corrected change from baseline QTcF (90% two-sided upper confidence interval)” value ([3]; 42 mg orally once daily for 5 days) was 4.9 (8.9) ms, the “placebo-corrected change from baseline QTcF (90% two-sided upper confidence interval)” value ([3]; supratherapeutic dose 126 mg orally once daily for 5 days) was 15.8 (19.8) ms and the “reduction from baseline to Day 28 in PANSS total score compared to placebo” value ([4]; 42 mg) was “statistically significant reduction”. For the same compound, the “PANSS Total, Placebo-subtracted Difference (95% CI)” value ([4]; 42 mg, Day 28, CI −10.5, −1.1) was −5.8, the “PANSS Total, LS Mean Change from Baseline (SE)” value ([4]; 42 mg, Day 28, N 84, placebo −7.4 (1.7)) was −13.2 (1.7) and the “treatment effect on PANSS total score vs. placebo” value ([4]; 84 mg (two times the recommended daily dose)) was “not statistically significant”. The “treatment effect on PANSS total score vs. placebo” value ([5]; 28 mg (two-thirds of the recommended daily dose)) was “not statistically significant”, the “reduction from baseline to Day 28 in PANSS total score compared to placebo” value ([5]; 42 mg) was “statistically significant reduction” and the “PANSS Total, Placebo-subtracted Difference (95% CI)” value ([5]; 42 mg, Day 28, CI −7.8, −0.6) was −4.2. The “PANSS Total, LS Mean Change from Baseline (SE)” value ([5]; 42 mg, Day 28, N 150, placebo −10.3 (1.3)) was −14.5 (1.3), the “frequency of reported events related to extrapyramidal symptoms (EPS)” value ([6]; 4- to 6-week placebo-controlled studies, placebo 6.3%) was 6.7% and the “Creatine Phosphokinase Increased, adverse reaction incidence” value [6, 7] was 4%. The “Fatigue, adverse reaction incidence” value [6, 7] was 3%, the “Hepatic Enzymes Increased (ALT, AST, “hepatic enzymes” increased, or liver function tests abnormal), adverse reaction incidence” value [6, 7] was 2% and the “Dry Mouth, adverse reaction incidence” value [6, 8] was 6%. The “Vomiting, adverse reaction incidence” value [6, 8] was 3%, the “Dizziness (dizziness, dizziness postural), adverse reaction incidence” value ([6]; 4- to 6-week trials, 60 mg tosylate daily, N = 406, placebo 3%) was 5% and the “Nausea, adverse reaction incidence” value ([6]; 4- to 6-week trials, 60 mg tosylate daily, N = 406, placebo 5%) was 9%. For the same compound, the “Somnolence/Sedation, adverse reaction incidence” value ([6]; 4- to 6-week trials, 60 mg tosylate daily, N = 406) was 24%, the “Somnolence/Sedation, adverse reaction incidence” value ([6]; 4- to 6-week trials, 60 mg tosylate daily, N = 406, listed as lumateperone tosylate) was 24% and the “mean change from baseline, Barnes Akathisia Rating Scale (BARS)” value ([6]; 4- to 6-week trials, score range 0 to 14, placebo 0) was −0.1. The “mean change from baseline, Abnormal Involuntary Movement Scale (AIMS)” value ([6]; 4- to 6-week trials, score range 0 to 28, placebo 0) was 0.1, the “mean change from baseline, Simpson Angus Scale (SAS)” value ([6]; 4- to 6-week trials, score range 0 to 40, placebo 0) was 0.1 and the “frequency of orthostatic hypotension” value ([6]; clinical trials, placebo 0%) was 0.7%. The rate of syncope ([6]; clinical trials, placebo 0.2%) was 0.2%, the “rate of any single adverse reaction leading to discontinuation” value ([6]; none occurred at >2%) was at most 2% and the “mean changes from baseline and proportion of subjects with increase in weight ≥7% from baseline to end of study, versus placebo” value ([6]; pooled placebo-controlled trials) was “similar”.

For `Cc1nc2n(c(=O)c1CCN1CCC(c3noc4cc(F)ccc34)CC1)CCCC2` [risperidone], the “incidence … versus placebo” value [1] is given as “higher incidence”.
